One experiment addresses T1, MLK-3 (Homo sapiens, UniProt Q16584).
T1 construct: A full length cDNA of human MLK-3, MLK-2, or mouse DLK; expressed in transfected cells; host or cells: Cos7
Briefly: JNK activity (immunoprecipitation/kinase assay) in Cos7 cells overexpressing MLK-3 and HA-JNK1. The format is cell-based. As to the method: Cos7 cells were plated at 80% confluency and transfected with 2 ug each of cDNA constructs using lipofectamine as recommended by the provider (Gibco BRL, Gaithersburg, MD). A full length cDNA of human MLK-3, MLK-2, or mouse DLK or a partial human MLK-1 as described above, and a full length Hemagluttinin A-tagged human JNK1, kindly provided by J. Silvio Gutkind (NIH, Bethesda, MD), were subcloned into the pcDNA3 vector (Invitrogen, San Diego, CA). […] JNK activity from the lysate was assayed by an immunoprecipitation/kinase assay as described below.
Lysate from Cos 7 cells was measured for protein concentration using the Micro BCA kit from Pierce (Rockford, IL) and equal amounts of protein were immunoprecipitated with the HA antibody for 1 hr at 4°C. Immunoprecipitates were pelleted by centrifugation in a microfuge centrifuge for 20 sec, resuspended in Triton buffer, washed by centrifugation 2 more times, followed by a final wash in Kinase buffer (20 mM Hepes pH 7.4,20 mM MgCl2, 2 mM dithiothreitol, 0.1 mM sodium vanadate). The immunoprecipitate was resuspended in kinase buffer containing 1 µM ATP and 5 µCi [γ-^32P]ATP and substrate (1 µg/sample of AP-1 ) and incubated for 15 min at 30°C. […] Samples were heated to 80°C for 5 min and loaded onto 10% SDS-polyacrylamide gels. Proteins were separated by electrophoresis. The gel was dried and quantitation of radioactivity in the AP-1 substrate was performed on a Molecular Dynamics Phosphorimager (Sunnyvale, Ca.).
To determine whether inhibition of the JNK pathway regulated by these kinases correlated with neurotrophic compounds, we evaluated the effect of compounds on JNK activity in Cos7 cells overexpressing HA-JNK and MLK3. After a 48 hr transfection period, the cells were incubated with compounds at 500 nM for 2hr followed by cellular lysis. Lysate was immunoprecipitated and kinase activity measured as previously described. […]

The next experiment relates to TNF-α. Briefly: Induction of TNF-α by LPS in THP-1 cells (ELISA). Type of experiment: cell-based. The following applies: for IC50: Homo sapiens, THP-1, LPS 2 µg/ml, serum-free medium, read-out: THP-1 Cells TNF-α IC50; for TNF-α in the medium: inhibitor 30 min prior to LPS, medium collected 3 hr after LPS. As to the method:
THP-1 cells were grown in RPMI 1640 medium supplemented with 10% fetal bovine serum. LPS (E.coli serotype 0111.B4, TCA extracted) was purchased from Sigma and dissolved in PBS. ELISA kits for assaying IL-1 and TNF-α were purchased from Boerhinger-Mannheim and assays on THP-1 culture medium were performed as directed by the manufacturer. Standard curves according to directions were obtained with each assay.
Experiments were performed in 12 well culture plates with either 1 or 2 ml of THP-1 cells at 4 X 10^5 cells/ml. IL-1 and TNF-α were induced by the addition of LPS to the culture medium and the medium collected at various times thereafter for cytokine assay. Cells were removed by centrifugation and the supernatants frozen at -70°C until assay. To minimize costs experiments were performed in duplicate cultures and the duplicate supernatants were pooled after centrifugation. Each pooled supernatant was assayed in duplicate. Stock solutions of indolo- and fused pyrrolocarbazoles in 100% DMSO were diluted to the desired concentrations in either medium containing 10% fetal bovine serum or in medium containing 0.5 mg/ml BSA. Unless otherwise stated, compounds were added to the THP-1 cells 1 hr prior to the addition of LPS.
Background: An ELISA detects its analyte on a solid surface through an enzyme-linked reagent.

The test system of a further experiment is JNK. Nature of the experiment: JNK activity immunoprecipitated from THP-1 cells. Type of experiment: cell-based. The settings on record: Homo sapiens, read-out: THP-1 Cells JNK % inh. 500 nM. The method, then: Assays for JNK activity were performed after immunoprecipitating the JNK protein from an extract of lysed THP-1 cells. Pelleted THP-1 cells were lysed on ice for 15 min in 500 µl of Frac buffer (10 mM Tris-Hcl, pH 7.5,50 mM NaCl, 30 µM sodium pyrophosphate, 1 mg/ml BSA, 1% Triton-X-100). The extract was centrifuged for 10 min at 14K and 5 µl of JNK antibody (Santa Cruz) was added to the supernatant. The extract was rotated for 60 min at 4°C, 75 µl of washed protein A Sepharose (20% w/v in Frac) added and the extract rotated another 30 min to bind the antibody complex to the protein A Sepharose. The protein A Sepharose was washed twice with Frac buffer, once with 20 mM Hepes, pH 7.6, 20 mM MgCl2, 2 mM DTT, then incubated for 15 min at 30° C in 30 µl of kinase buffer (20 mM hepes, 20 mM MgCl2, 2 MM DTT, 1 µg recombinant c-jun, and 2 µM ATP-γ-^32P, 2 µCi. The reaction was terminated by the addition of 10 µl of 4X SDS gel loading buffer, heated for 3 min at 80° C, and the proteins were analyzed on a 10% SDS gel. The gel was dried, exposed to a Phosphorimager plate, and the radioactive bands were analyzed on a Phosphorimager.

The test system of the next experiment is MKK4. Nature of the experiment: MPTP model: phosphorylated MKK4 in the substantia nigra (immunoblot, ELISA). Type of experiment: in vivo, mice. The settings on record: pretreatment; Compound III-3 1 mg/kg (Fig. 22c). The method, then: MPTP was administered at a dose (40 mg/kg) that produces loss of striatal dopaminergic terminals and cell bodies in the substantia nigra. Tyrosine hydroxylase was used as a marker for dopamenergic nerve terminals in the substantia nigra. […] Since Compound III-3 is a known inhibitor of MLK3, activation of a downstream substrate of MLK3 was measured in MPTP- treated mice. Levels of phosphorylated MKK4 were measured using a phospho-MKK4 specific antibody (New England Biolabs, Beverly, MA) that recognizes the monophosphorylated form of MKK4 by either immunoblot (Fig. 22b) or ELISA (Fig. 22c). MPTP administration elevated levels of phosphorylated MKK4 in the substantia nigra by up to 5 fold over control levels (Fig. 22b). Peak elevations occurred 4 hrs after administration ofMPTP and coincided with peak CNS levels of MPP^+.

Setting [1] is: COS-7, 500 nM for 2hr, control is JNK activity in the presence of DMSO, read-out: % Inhibition of JNK Activity (average) MLK3 in Cos7 cells.
[2] abbreviates: COS-7, read-out: Overexpressed MLK3 in Cos 7 Cells JNK % inh. 500 nM.

Where two headings read alike, the source gives them in different places. Starred links: 1 amine or outer side, 2 acyl side, 3 side chain; linkers in the order of their positions; H or OH if unused. Positions of bridges follow the written chain, without caps; N, C: chain ends. Non-standard residues stand in square brackets, D forms with d. Residues, ends and D or L forms follow the SMILES beside them. Chains are numbered I, II in the order given. Actinocin(9to1) = Cc1c2oc3c(C)ccc(C(=O)[*:1])c3nc-2c(C(=O)[*:2])c(N)c1=O; NMeV = CN[C@H](C(=O)O)C(C)C; Sar = CNCC(=O)O

T1 sequence (Q16584 whole entry): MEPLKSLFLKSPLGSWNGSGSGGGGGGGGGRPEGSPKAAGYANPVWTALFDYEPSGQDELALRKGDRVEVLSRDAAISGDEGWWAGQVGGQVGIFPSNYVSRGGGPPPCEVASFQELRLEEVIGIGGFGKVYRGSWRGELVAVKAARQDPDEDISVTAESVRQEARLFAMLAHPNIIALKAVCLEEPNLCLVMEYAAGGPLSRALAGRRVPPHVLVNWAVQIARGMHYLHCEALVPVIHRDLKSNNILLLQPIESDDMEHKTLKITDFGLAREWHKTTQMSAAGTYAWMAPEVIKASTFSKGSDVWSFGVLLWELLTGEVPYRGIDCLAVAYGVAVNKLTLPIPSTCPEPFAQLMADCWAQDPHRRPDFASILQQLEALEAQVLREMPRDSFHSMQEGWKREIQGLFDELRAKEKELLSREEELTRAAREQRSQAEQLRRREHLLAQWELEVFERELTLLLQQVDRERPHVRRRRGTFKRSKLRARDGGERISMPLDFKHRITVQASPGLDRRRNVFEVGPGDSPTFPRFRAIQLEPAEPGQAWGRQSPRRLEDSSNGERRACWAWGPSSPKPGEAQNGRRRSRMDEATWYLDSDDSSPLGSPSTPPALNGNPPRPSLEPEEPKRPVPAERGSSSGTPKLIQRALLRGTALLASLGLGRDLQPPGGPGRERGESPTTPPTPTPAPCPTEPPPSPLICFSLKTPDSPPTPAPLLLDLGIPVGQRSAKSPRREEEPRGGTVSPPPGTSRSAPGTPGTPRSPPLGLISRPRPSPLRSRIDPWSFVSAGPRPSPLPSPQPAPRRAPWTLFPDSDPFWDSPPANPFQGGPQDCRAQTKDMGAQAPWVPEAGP

A word on the IC50: it is the concentration at which inhibition is half-maximal. Consider `CCCCCOC(=O)C1(O)CC2OC1(C)n1c3ccccc3c3c4c(c5c6ccccc6n2c5c31)C(=O)NC4` (stereo not drawn) [III-4], for which the inhibition at 0.5 µM was 66% at MLK-3 (setting [1]), 66% on MLK-3 (setting [2]) and 81% in the experiment with JNK. Moreover, in the experiment with TNF-α, the concentration for half-maximal inhibition (IC50) was 0.463 µM.
Consider `CCOCOCc1ccc2c(c1)c1c3c(c4c5cc(COCOCC)ccc5n5c4c1n2C1CC(O)(C(=O)OC)C5(C)O1)CNC3=O` (stereo not drawn) [III-2], for which the inhibition at 0.5 µM on MLK-3 (setting [1]) is 96%.
As for `C[C@@H]1C[C@@H]([C@H](O)CC2CC(=O)NC(=O)C2)C(=O)[C@@H](C)C1` [cycloheximide, reference compound], in the experiment with TNF-α, the “TNF-α in the medium” value was “no TNF-α was found”.
Turning to `CCNC(=O)Nc1ccc2c(c1)c1c3c(c4c5cc(CCc6ccccn6)ccc5n5c4c1n2C1CC(O)(C(=O)OC)C5(C)O1)CNC3=O` (stereo not drawn) [III-1], the inhibition at 0.5 µM is 84% on MLK-3 (setting [1]), 83.8% at MLK-3 (setting [2]) and 93.5% with JNK. In addition, the half-inhibitory concentration (IC50) with TNF-α worked out at 0.0495 µM.
For `COC(=O)C1(O)CC2OC1(C)n1c3ccc(CCSC)cc3c3c4c(c5c6cc(CCSC)ccc6n2c5c31)C(=O)NC4` (stereo not drawn) [III-10], in that order: 78%, 78%, 48% and 4.3 µM.
Turning to `COC(=O)C1(O)CC2OC1(C)n1c3ccccc3c3c4c(c5c6ccccc6n2c5c31)C(=O)NC4` (stereo not drawn) [III-9], the inhibition at 0.5 µM on MLK-3 (setting [1]) was determined as 98.5%.
Turning to `Cc1c2oc3c(C)ccc(C(=O)N[C@@H]4C(=O)N[C@H](C(C)C)C(=O)N5CCC[C@H]5C(=O)N(C)CC(=O)N(C)[C@@H](C(C)C)C(=O)O[C@@H]4C)c3nc-2c(C(=O)N[C@@H]2C(=O)N[C@H](C(C)C)C(=O)N3CCC[C@H]3C(=O)N(C)CC(=O)N(C)[C@@H](C(C)C)C(=O)O[C@@H]2C)c(N)c1=O` [Actinomycin D, reference compound] (I: T[dV]P[Sar][NMeV] / II: T[dV]P[Sar][NMeV]; ester I:1-I:C, II:1-II:C; linker I:N-II:N via Actinocin(9to1)), the “TNF-α in the medium” value in the experiment with TNF-α is listed as “no TNF-α was found”.
Turning to `C#CCN(C)[C@H](C)Cc1ccccc1` [Compound 1-deprenyl, 1-deprenyl, reference compound], the “MPTP-mediated MKK4 phosphorylation” value in the experiment on MKK4 is “attenuated”.
In the case of `COC(=O)C1(OC)CC2OC1(C)n1c3ccccc3c3c4c(c5c6ccccc6n2c5c31)C(=O)NC4` (stereo not drawn) [III-11], the inhibition at 0.5 µM came out at 92.5% on MLK-3 (COS-7, 500 nM, read-out: Overexpressed MLK3 in Cos 7 Cells JNK % inh. 500 nM); 92.5% on MLK-3 (setting [1]); 51% in the experiment on JNK. Moreover, the IC50 in the experiment with TNF-α amounted to 0.686 µM.

The values above are taken from patent EP1105728B1, “MODULATING MULTIPLE LINEAGE KINASE PROTEINS” (CEPHALON, INC., priority 1998, dated 2000).
